Assay results published in US8772303B2, “Pharmaceutical formulation” (Glaxo Group Limited, priority 2004, dated 2014).

Tests used:
[1] = Measurement of the substituted uracil formula (II) in simulated intestinal fluid (hydrolysis of active); assay type: physicochemical; details: for Levels of formula (II) in simulated intestinal fluid: 80 mg active in 250 mL fasted-state SIF, 37° C., 50 rpm
Description: To simulate in vitro the propensity of active tablets to give rise to abnormal smells in the human intestine, active equivalent to 80 mg was immersed in 250 mL simulated intestinal fluid (corresponding to the fasted state in humans) held at 37° C. and stirred at 50 rpm in a USP2 dissolution apparatus. This is chemically equivalent to a tablet whose enteric coat has been destroyed and whose core has subsequently disintegrated.
The level of formula (II) in solution was monitored over time, by withdrawing a small sample of the fluid and comparing its LC-MS response to that of a matrix-matched external standard (i.e. synthetic formula (II)).

[2] = Measurement of the substituted uracil formula (II) in simulated gastric fluid (hydrolysis of active); assay type: physicochemical; details: for Levels of Formula (II) in simulated gastric fluid: 60 mg active in 250 mL SGF, 37° C., 50 rpm
Text: Compounds of Formula (I) hydrolyse, particularly under conditions where pH corresponds to that typically prevailing in the human stomach, to form a thiol and a uracil in a 1:1 stoichiometric ratio. The thiol has a smell characteristic of compounds of its class, the intensity of the smell increasing with the concentration of the thiol. Thus the concentration of the uracil is a surrogate marker for the intensity of the smell.
To simulate in vitro the effect of enteric-coating on the propensity of 1-(N-(2-(Diethylamino)ethyl)-N-(4-(4-trifluoromethylphenyl)benzyl)aminocarbonylmethyl)-2-(4-fluorobenzyl)thio-5,6-trimethylenepyrimidin-4-one as the free base (called “active” in this example) to give rise to abnormal smells in vivo, a two-armed study was performed. In both arms, 60 mg of active was immersed in 250 mL simulated gastric fluid held at 37° C. and stirred at 50 rpm in a USP2 dissolution apparatus. In one arm, the active was present as an enteric-coated tablet. In the other arm, active was present as the unformulated drug substance, which is chemically equivalent to a tablet lacking an enteric coat.
The uracil produced by the active is N-[2-(diethylamino)ethyl]-2-(2,4-dioxo-2,3,4,5,6,7-hexahydro-1H-cyclopenta[d]pyrimidin-1-yl)-N-{[4′-(trifluoromethyl)-4-biphenylyl]methyl}acetamide, as shown in Formula (II): […]
In both arms, the level of formula (II) in solution was monitored over time, by withdrawing a small sample of the fluid and comparing its LC-MS response to that of a matrix-matched external standard (i.e. synthetic formula (II)).

CCN(CC)CCN(Cc1ccc(-c2ccc(C(F)(F)F)cc2)cc1)C(=O)Cn1c(SCc2ccc(F)cc2)nc(=O)c2c1CCC2 [Unformulated drug, 1-(N-(2-(Diethylamino)ethyl)-N-(4-(4-trifluoromethylphenyl)benzyl)aminocarbonylmethyl)-2-(4-fluorobenzyl)thio-5,6-trimethylenepyrimidin-4-one]
Levels of formula (II) in simulated intestinal fluid ([1]; 480 min): 2.99 ng/mL | Levels of formula (II) in simulated intestinal fluid ([1]; 1440 min): 8.58 ng/mL | Propensity to form formula (II) in simulated intestinal fluid ([1]; in contrast to behaviour in simulated gastric fluid): low propensity | Levels of Formula (II) in simulated gastric fluid ([2]; 0 min, QL 1.71 ng/mL): 6270 ng/mL | Levels of Formula (II) in simulated gastric fluid ([2]; 5 min, QL 1.71 ng/mL): 6570 ng/mL | Levels of Formula (II) in simulated gastric fluid ([2]; 10 min, QL 1.71 ng/mL): 7180 ng/mL | Levels of Formula (II) in simulated gastric fluid ([2]; 15 min, QL 1.71 ng/mL): 7970 ng/mL | Levels of Formula (II) in simulated gastric fluid ([2]; 30 min, QL 1.71 ng/mL): 9270 ng/mL | Levels of Formula (II) in simulated gastric fluid ([2]; 45 min, QL 1.71 ng/mL): 11450 ng/mL | Levels of Formula (II) in simulated gastric fluid ([2]; 60 min): 13110 ng/mL | Levels of Formula (II) in simulated gastric fluid ([2]; 120 min): 18940 ng/mL | Levels of Formula (II) in simulated gastric fluid ([2]; 240 min): 25250 ng/mL | Levels of Formula (II) in simulated gastric fluid ([2]; 480 min): 62910 ng/mL | Levels of Formula (II) in simulated gastric fluid ([2]; 1440 min): 135600 ng/mL | Reduction by the enteric coat of the level of formula (II) formed by active ([2]; simulated gastric fluid, enteric coated tablet versus unformulated drug): 4 orders of magnitude
